Data: a melting point compilation (Tetko et al.)

Row | melting point [°C] | SMILES
1 | 68 to 70 | CC(C)OC(=O)CC(N)=S
2 | 239 to 241 | O=C(Nc1ccc(-n2cnc3ccccc32)nc1)OCC(F)(F)F
3 | 121 to 123 | c1cc2c(cn1)NCCCN2
4 | 134 to 136 | O=C(O)c1cnc(Oc2ccccc2)cn1
5 | 188 to 190 | CN(CC(=O)Nc1c(Cl)cccc1Cl)C(=O)CCl
6 | 252 to 254 | O=C(O)c1cccc(NC(=O)C2Cc3ccccc3O2)c1 (stereo unspecified)
7 | 178 to 180 | NC(=O)NCCCCC(=O)O
8 | 111 to 113 | O=C(O)CCOc1ccccc1Br
9 | 204 to 206 | Cn1c(C(=O)O)c(Br)c2ccccc21
10 | 59 to 61 | Cc1nc(CO)oc1C
11 | 199 to 201 | O=c1[nH]c2ccccc2cc1CCl
12 | 29 to 31 | O=[N+]([O-])c1cccc(C(F)F)c1Br
13 | 78 to 80 | Nc1ccccc1C(=O)NCC1CCCO1 (stereo unspecified)
14 | 169 to 171 | O=C(O)c1cc(Br)ncc1[N+](=O)[O-]
15 | 113 to 115 | Cc1c(I)cccc1C(=O)O
16 | 118 to 120 | CC1CCC2(CC1)NC(=O)N(N)C2=O (stereo unspecified)
17 | 250 to 252 | NC1=NC(=O)NC12CCCC2
18 | 215 to 217 | Cc1ccc(F)cc1S(=O)(=O)Nc1cccc(C(=O)O)c1
19 | 320 to 322 | O=C(O)CSc1nc2cc(-c3ccccc3)sc2c(=O)n1Cc1ccccc1
20 | 184 to 186 | Cc1ccc(NC(N)=S)cc1C
21 | 70 to 72 | FC(F)(F)CNc1ccccn1
22 | 105 to 107 | CCCN1C(=O)NC(=O)C1=O
23 | 42 to 44 | O=S(=O)(Cl)c1cccnc1Cl
24 | 177 to 179 | C#CCN1CCCCC1C(=O)O (stereo unspecified)

Row | melting point [°C] | SMILES
25 | 201 to 203 | O=C1CCCN1c1cccc(O)c1
26 | 176 to 178 | NC(=O)c1cc(Cl)nnc1Cl
27 | 53 to 55 | CC(C)(C)c1ccc(CCCC(=O)O)cc1
28 | 185 to 187 | COCCn1cc(C(=O)O)ccc1=O
29 | 147 to 149 | Cn1c(NN)nnc1-c1ccccc1
30 | 115 to 117 | CC(Cl)C(=O)N1CCN(C(=O)OC(C)(C)C)CC1 (stereo unspecified)
31 | 119 to 121 | CC(C)CC(C(=O)O)N1C(=O)c2ccccc2C1=O (stereo unspecified)
32 | 284 to 286 | Nc1ccc(Cl)c(-c2nnc3n2CCCCC3)c1
33 | 68 to 70 | CC(=O)CC(=O)Nc1ccc(C(C)C)cc1
34 | 85 to 87 | N#CCC(=O)Cc1ccc(Cl)cc1
35 | 188 to 190 | COCc1nc(OC)c2c(C)c(C(=O)O)sc2n1
36 | 37 to 39 | O=S(=O)(Cl)CCOc1ccccc1
37 | 68 to 70 | CC=Cc1ccc(OCC(=O)OC)c(OC)c1
38 | 184 to 186 | CCOC(=O)c1nc(C)n[nH]1
39 | 98 to 100 | CC(C)NS(=O)(=O)c1cccc(CN)c1
40 | 175 to 177 | CCc1cccc2c(CC(=O)O)c[nH]c12
41 | 59 to 61 | CC1CN(C(CN)c2c(F)cccc2F)CC(C)O1 (stereo unspecified)
42 | 154 to 156 | COc1cccc(NC(=O)CC#N)c1
43 | 249 to 251 | Cc1c(C)n(-c2ccc(Cl)cc2)c2ncnc(N)c12
44 | 89 to 91 | CN(C)C(=O)c1cnc(Cl)c(Cl)c1
45 | 175 to 177 | Cn1cc(C=O)c(-c2ccc([N+](=O)[O-])cc2)n1
46 | 36 to 38 | CC(Br)c1cccc2ccccc12 (stereo unspecified)
47 | 219 to 221 | Nc1nnc(-c2cccc(Cl)c2)[nH]1
48 | 84 to 86 | CNC(=O)COc1ccc(C(C)O)cc1 (stereo unspecified)

Row | melting point [°C] | SMILES
49 | 248 to 250 | CCc1ccc(-c2cnnc(N)n2)cc1
50 | 117 to 119 | CC(C)(C)c1cccc(OCC(=O)O)c1
51 | 34 to 36 | O=C(O)C1C2CCCC21 (stereo unspecified)
52 | 279 to 281 | COc1cc2c(cc1OC)S(=O)(=O)NC2=O
53 | 310 to 312 | Cc1ncc(C(=O)O)c(=O)[nH]1
54 | 63 to 65 | CC(C)OCCS(=O)(=O)NCC(=O)O
55 | 163 to 165 | COC(=O)c1cc(Cl)cc([N+](=O)[O-])c1O
56 | 118 to 120 | O=C(CCl)Nc1cc(F)ccc1F
57 | 126 to 128 | COc1cc(N)ccc1N1CCCC1=O
58 | 178 to 180 | CCCCCC(=O)Nc1cc(OC)c(OC)cc1C(=O)O
59 | 209 to 211 | O=C1CC(=Cc2ccc(F)cc2)C(=O)N1
60 | 170 to 172 | O=C(Nc1cccc(-c2nnco2)c1)OCC(F)(F)F
61 | 149 to 151 | COc1ccc(C(=O)O)cc1S(=O)(=O)N(C)C
62 | 123 to 125 | Clc1ccc2ccc(Cl)c(Cl)c2n1
63 | 154 to 156 | OCc1nnc(S)n1C1CC1
64 | 94 to 96 | Cc1c(N)cccc1COc1ccccc1
65 | 105 to 108 | Cc1cc(C(=O)CCC(=O)O)c(C)s1
66 | 151 to 153 | COc1cccc(-n2c(CC(=O)NN)csc2=NCc2ccco2)c1
67 | 67 to 69 | N#CCC(=O)c1ccc(F)c(F)c1
68 | 53 to 55 | N#Cc1ccc(OCC2CC2)nc1
69 | 148 to 150 | N#Cc1ccnc(-n2ccnc2)c1
70 | 66 to 68 | COc1ccccc1-c1cccc(N)c1
71 | 58 to 60 | Cn1nccc1CO
72 | 189 to 191 | Cn1c(S)nnc1CO

Row | melting point [°C] | SMILES
73 | 147 to 149 | O=C(O)C(Oc1cccc(Cl)c1Cl)c1ccccc1 (stereo unspecified)
74 | 130 to 132 | CC(C)C(C(=O)O)N1CCCC1=O (stereo unspecified)
75 | 53 to 55 | CCOC(=O)c1sc(C(C)N)nc1C (stereo unspecified)
76 | 96 to 98 | OCCn1nc(-c2ccccc2)cc1-c1ccccc1
77 | 128 to 130 | Cc1cc(NC(=O)OCC(F)(F)F)n(CCC#N)n1
78 | 197 to 199 | O=C(O)CN1C(=O)c2ccc([N+](=O)[O-])cc2C1=O
79 | 46 to 48 | O=[N+]([O-])c1cc(S(=O)(=O)Cl)c(F)cc1F
80 | 110 to 112 | N#Cc1ccc(Oc2ccc(N)cc2)cc1
81 | 173 to 175 | Cc1nnc(-c2cccc(C#N)c2)[nH]1
82 | 244 to 246 | O=C(Nc1sccc1C(=O)O)c1ccc(Cl)cc1O
83 | 199 to 201 | O=C(O)Cn1cncn1
84 | 131 to 133 | NC(=S)Cc1nccn1Cc1ccccc1
85 | 173 to 175 | Cn1ccnc1CN1CCC(C(=O)O)CC1
86 | 119 to 121 | Cc1c(S(=O)(=O)Cl)cnn1-c1ccc(Cl)cc1
87 | 49 to 51 | OCc1ccn(-c2ccccc2)n1
88 | 193 to 195 | CC(Cc1nc2ccccc2s1)(C(=O)O)c1ccccc1 (stereo unspecified)
89 | 130 to 132 | CC(C)(C)OC(=O)NCCNS(=O)(=O)c1ccc(N)cc1
90 | 123 to 125 | CS(=O)(=O)NC1CCCNC1 (stereo unspecified)
91 | 246 to 248 | O=C(O)CCc1nc(-c2nnc[nH]2)no1
92 | 227 to 230 | Cc1ccc(N)cc1S(=O)(=O)Nc1ccc(SC(F)F)cc1
93 | 117 to 119 | CCn1ncc2ccc(N)cc21
94 | 326 to 328 | Cc1[nH]c(=O)[nH]c(=O)c1CO
95 | 76 to 78 | Cc1ccc(O)c(S(=O)(=O)N(C)C)c1
96 | 158 to 160 | CC(C)NC(=O)c1ccc(Cl)cc1N

Row | melting point [°C] | SMILES
97 | 139 to 141 | Cn1cccc1C(=O)NC(=O)CCl
98 | 108 to 110 | CCOC(=O)c1c(N)sc(C(=O)OC(C)(C)C)c1C
99 | 194 to 196 | Cc1[nH]c(-c2cccnc2)nc(=NN)c1C
100 | 261 to 263 | CC1=NN(c2ccc(C(=O)O)cc2)CC1
101 | 228 to 230 | CC(=O)c1ccc(NC(=O)c2ccc(C#N)cc2)cc1
102 | 125 to 127 | COc1cc(OC)cc(N2CC(C(=O)O)CC2=O)c1 (stereo unspecified)
103 | 51 to 53 | Clc1nc(-c2ccccc2)ns1
104 | 153 to 155 | Cc1ccccc1-c1nn[nH]n1
105 | 107 to 109 | O=C1NCc2ccccc2N1CCO
106 | 235 to 237 | Nc1c(C(=O)O)ccc(Cl)c1Cl
107 | 326 to 328 | NC(=O)c1ccc(=O)[nH]n1
108 | 185 to 187 | O=C1Cc2cc(S(=O)(=O)Cl)c(Cl)cc2N1
109 | 89 to 91 | CCC1=NN(C)C(=O)C1
110 | 159 to 161 | Cc1ncsc1-c1nc(CN)no1
111 | 189 to 191 | COc1ccc(S(=O)(=O)N2CCOCC2)cc1N
112 | 173 to 175 | COc1ccccc1C(=O)/C=C1\NC(=O)CS1
113 | 85 to 87 | CNCC(O)COc1ccc(C(F)(F)F)cc1 (stereo unspecified)
114 | 81 to 83 | COc1ccc(OC)c(C(F)(F)C(=O)O)c1
115 | 187 to 189 | CCOc1ccc(NC(C)=O)cc1S(N)(=O)=O
116 | 110 to 112 | CNc1cc(F)ccc1[N+](=O)[O-]
117 | 272 to 274 | O=c1[nH]c(=O)c2cc(S(=O)(=O)Cl)ccc2[nH]1
118 | 100 to 102 | O=C(NC1CC1)C(=O)N1CCNCC1
119 | 168 to 170 | NC(=O)c1cccc2cccnc12
120 | 187 to 189 | O=C(CCl)N1CCN(S(=O)(=O)c2ccc([N+](=O)[O-])cc2)CC1

Row | melting point [°C] | SMILES
121 | 141 to 143 | CC(C)c1noc(-c2ccccc2C(=O)O)n1
122 | 146 to 148 | O=C(O)CCn1nc(-c2cccs2)oc1=O
123 | 71 to 74 | O=C(CCl)Nc1ccc(OC(F)(F)F)cc1
124 | 63 to 65 | O=C(c1ccc(Br)cc1)c1ccco1
125 | 34 to 36 | C#Cc1c(F)cccc1F
126 | 168 to 170 | O=S(=O)(Nc1ccc2cn[nH]c2c1)c1ccc2c(c1)CCC2
127 | 155 to 157 | COc1ccc(N)c2cccnc12
128 | 109 to 111 | Fc1ccc(-c2ccn[nH]2)cc1Cl
129 | 139 to 141 | COc1cc(C=O)c([N+](=O)[O-])cc1OCC(F)F
130 | 209 to 211 | Cc1c[nH]c(=O)n1-c1ccccc1[N+](=O)[O-]
131 | 252 to 254 | Nc1cc(C(=O)O)ccc1N1CCSCC1
132 | 165 to 167 | O=C(O)c1ccc(COc2ccc(F)cc2)o1
133 | 259 to 261 | Cc1cnc2c(c1)NC(=O)CO2
134 | 104 to 106 | CC(C)c1nnn[nH]1
135 | 208 to 210 | NC1(C(=O)O)CCCSC1 (stereo unspecified)
136 | 303 to 305 | Sc1nnc(-c2ccncc2)n1C1CC1
137 | 74 to 76 | COC(=O)c1cc(Cl)ccc1S(=O)(=O)Cl
138 | 94 to 96 | O=C1c2ccccc2S(=O)(=O)N1CCBr
139 | 137 to 139 | NNC(=O)CCN1CCCC1
140 | 39 to 41 | CC(=O)c1ccc(Cl)c(F)c1
141 | 229 to 231 | Cc1n[nH]c(O)c1C#N

Row | SMILES | melting point [°C]
142 | CN1CCC(NCCO)CC1 | 37 to 39
143 | COc1ccc(N2C(=O)CC(=O)NC2=S)cc1 | 241 to 243
144 | CC1CCC(NC(=O)CCl)CC1 (stereo unspecified) | 152 to 155
145 | CN(C(=O)CCl)c1nccs1 | 123 to 125
146 | CCc1cccc(C)c1NC(=O)CCl | 100 to 110
